Data on 14 compounds can be found in US20240100170A1, “CYCLIC-AMP RESPONSE ELEMENT BINDING PROTEIN (CBP) AND/OR ADENOVIRAL E1A BINDING PROTEIN OF 300 KDA (P300) DEGRADATION COMPOUNDS AND METHODS OF USE” (CULLGEN (SHANGHAI), INC., priority 2020, published 2024).

Where only a bound is given, the exact number is not on record here.

The test system of the first test is LNCaP prostate cancer cell. Kind of test: LNCaP cell viability (CellTiter-Glo). To be noted: 3 days, 3-fold serial dilution from 10 μM; FIG. 4. The format is cell-based. Here is the method:
LNCaP cells seeded in 96-well plates were treated with 10 μM GNE-781 or selected bivalent compounds, i.e. P-001, P-002, and P-019, following a 12-point 3-fold serial dilution. Three days after treatment, cell viability was determined using the CellTiter-Glo kit (Promega) following manufacturer's instructions. Cell viability was normalized to the mean values of 3 replicates of untreated cells. Dose-dependent response was analyzed following the least-squares non-linear regression method using the GraphPad Prism 5.0 software.
LNCaP (clone FGC), 22RV1 and other cells were cultured at 37° C. with 5% CO 2 in RPMI 1640 Medium supplemented with 10% fetal bovine serum. Cells were authenticated using the short tandem repeat (STR) assays. Mycoplasma test results were negative.
Cells were seeded at a density of 5000 cells per well in 96-well assay plates and treated with test compounds following a 12-point 3-fold serial dilution. Three days later, cell viability was determined using the CellTiter-Glo assay kit according to the manufactureR's instructions. The dose-response curves were determined and IC50 values were calculated using the GraphPad Prism software following a nonlinear regression (least squares fit) method.
On the technique in general: In ATP-based viability assays light output follows the ATP content of the culture.
For the compound `CNC(=O)N1CCc2c(c(N3CCCc4cc(-c5cnn(C)c5)c(C(F)F)cc43)nn2C2CCN(C(=O)CCNc3ccc4c(c3)C(=O)N(C3CCC(=O)NC3=O)C4=O)CC2)C1` (centres unmarked) [P-002, 3-(7-(difluoromethyl)-6-(1-methyl-1H-pyrazol-4-yl)-3,4-dihydroquinolin-1(2H)-yl)-1-(1-(3-((2-(2,6-dioxopiperidin-3-yl)-1,3-dioxoisoindolin-5-yl)amino)propanoyl)piperidin-4-yl)-N-methyl-1,4,6,7-tetrahydro-5H-pyrazolo[4,3-c]pyridine-5-carboxamide], the “viability of LNCaP cells” value was “dose-dependently suppressed viability of LNCaP cells”.
The same measure, in the same setting: under `CNC(=O)N1CCc2c(c(N3CCCc4cc(-c5cnn(C)c5)c(C(F)F)cc43)nn2C2CCN(C(=O)CNc3ccc4c(c3)C(=O)N(C3CCC(=O)NC3=O)C4=O)CC2)C1` (centres unmarked) [P-001, 3-(7-(difluoromethyl)-6-(1-methyl-1H-pyrazol-4-yl)-3,4-dihydroquinolin-1(2H)-yl)-1-(1-((2-(2,6-dioxopiperidin-3-yl)-1,3-dioxoisoindolin-5-yl)glycyl)piperidin-4-yl)-N-methyl-1,4,6,7-tetrahydro-5H-pyrazolo[4,3-c]pyridine-5-carboxamide] stands “dose-dependently suppressed viability of LNCaP cells”.

Staying with this test, now noted: Homo sapiens, 72 h; LNCaP cell viability, 3 days, CellTiter-Glo; Table 2.
A word on the IC50: it is the concentration needed to halve the response being measured. Compound `CNC(=O)N1CCc2c(c(N3CCCc4cc(-c5cnn(CC(=O)NCCCCCCCCCCC(=O)N[C@H](C(=O)N6CC(O)C[C@H]6C(=O)NCc6ccc(-c7scnc7C)cc6)C(C)(C)C)c5)c(C(F)F)cc43)nn2C2CCOCC2)C1` (stereo in doubt) [P-050, 3-(7-(difluoromethyl)-6-(1-(2-((11-(((S)-1-((2S,4R)-4-hydroxy-2-((4-(4-methylthiazol-5-yl)benzyl)carbamoyl)pyrrolidin-1-yl)-3,3-dimethyl-1-oxobutan-2-yl)amino)-11-oxoundecyl)amino)-2-oxoethyl)-1H-pyrazol-4-yl)-3,4-dihydroquinolin-1(2H)-yl)-N-methyl-1-(tetrahydro-2H-pyran-4-yl)-1,4,6,7-tetrahydro-5H-pyrazolo[4,3-c]pyridine-5-carboxamide] gave an IC50 of 111 nM.

Staying with this test, now noted: Homo sapiens, 72 h; LNCaP cell viability, 3 days, CellTiter-Glo; Table 3.
Turning to `CC(=O)N1CCc2c(c(N3CCCc4cc(-c5cnn(C)c5)c(C(F)F)cc43)nn2C2CCN(CCCNC(=O)CNc3cccc4c3C(=O)N(C3CCC(=O)NC3=O)C4=O)CC2)C1` (centres unmarked) [P-124, N-(3-(4-(5-acetyl-3-(7-(difluoromethyl)-6-(1-methyl-1H-pyrazol-4-yl)-3,4-dihydroquinolin-1(2H)-yl)-4,5,6,7-tetrahydro-1H-pyrazolo[4,3-c]pyridin-1-yl)piperidin-1-yl)propyl)-2-((2-(2,6-dioxopiperidin-3-yl)-1,3-dioxoisoindolin-4-yl)amino)acetamide], the IC50 is more than 1000 nM.
`CNC(=O)N1CCc2c(c(N3CCCc4cc(-c5cnn(CC(=O)NCCOCCOCC(=O)N[C@H](C(=O)N6C[C@H](O)C[C@H]6C(=O)NCc6ccc(-c7scnc7C)cc6)C(C)(C)C)c5)c(C(F)F)cc43)nn2C2CCOCC2)C1` [P-083, 3-(7-(difluoromethyl)-6-(1-((S)-13-((2S,4R)-4-hydroxy-2-((4-(4-methylthiazol-5-yl)benzyl)carbamoyl)pyrrolidine-1-carbonyl)-14,14-dimethyl-2,11-dioxo-6,9-dioxa-3,12-diazapentadecyl)-1H-pyrazol-4-yl)-3,4-dihydroquinolin-1(2H)-yl)-N-methyl-1-(tetrahydro-2H-pyran-4-yl)-1,4,6,7-tetrahydro-5H-pyrazolo[4,3-c]pyridine-5-carboxamide] registered a half-maximal inhibitory concentration (IC50) of more than 10000 nM.

The same test, now with this note: Homo sapiens, 72 h; LNCaP cell viability, 3 days, CellTiter-Glo; Table 4.
On to `CC(=O)N1CCc2c(c(N3CCCc4cc(-c5cnn(C)c5)c(C(F)F)cc43)nn2C2CCN(C(=O)CCCC3CCN(CC(=O)Nc4cccc(NC5CCC(=O)NC5=O)c4)CC3)CC2)C1` (centres unmarked) [P-262, 2-(4-(4-(4-(5-Acetyl-3-(7-(difluoromethyl)-6-(1-methyl-1H-pyrazol-4-yl)-3,4-dihydroquinolin-1(2H)-yl)-4,5,6,7-tetrahydro-1H-pyrazolo[4,3-c]pyridin-1-yl)piperidin-1-yl)-4-oxobutyl)piperidin-1-yl)-N-(3-((2,6-dioxopiperidin-3-yl)amino)phenyl)acetamide], for which the IC50 is more than 500 nM.
On to `CC(=O)N1CCc2c(c(N3CCCc4cc(-c5cnn(C)c5)c(C(F)F)cc43)nn2C2CCN(CCCCN3CCC(Cn4c(=O)n(C5CCC(=O)NC5=O)c5ccccc54)CC3)CC2)C1` (centres unmarked) [P-236, 3-(3-((1-(4-(4-(5-acetyl-3-(7-(difluoromethyl)-6-(1-methyl-1H-pyrazol-4-yl)-3,4-dihydroquinolin-1(2H)-yl)-4,5,6,7-tetrahydro-1H-pyrazolo[4,3-c]pyridin-1-yl)piperidin-1-yl)butyl)piperidin-4-yl)methyl)-2-oxo-2,3-dihydro-1H-benzo[d]imidazol-1-yl) piperidine-2,6-dione], for which the midpoint of inhibition, the IC50, lay at 560 nM.
On the same count and under the same terms, under `CC(=O)N1CCc2c(c(N3CCCc4cc(-c5cnn(C)c5)c(C(F)F)cc43)nn2C2CCN(C(=O)CCN3CCC(COc4cccc5c4n(C)c(=O)n5C4CCC(=O)NC4=O)CC3)CC2)C1` (centres unmarked) [P-209, 3-(4-((1-(3-(4-(5-acetyl-3-(7-(difluoromethyl)-6-(1-methyl-1H-pyrazol-4-yl)-3,4-dihydroquinolin-1(2H)-yl)-4,5,6,7-tetrahydro-1H-pyrazolo[4,3-c]pyridin-1-yl)piperidin-1-yl)-3-oxopropyl)piperidin-4-yl)methoxy)-3-methyl-2-oxo-2,3-dihydro-1H-benzo[d]imidazol-1-yl)piperidine-2,6-dione] stands more than 500 nM; under `CC(=O)N1CCc2c(c(N3CCCc4cc(-c5cnn(C)c5)c(C(F)F)cc43)nn2C2CCN(C(=O)CCN3CCC(COc4ccc5c(c4)n(C)c(=O)n5C4CCC(=O)NC4=O)CC3)CC2)C1` (centres unmarked) [P-203, 3-(5-((1-(3-(4-(5-acetyl-3-(7-(difluoromethyl)-6-(1-methyl-1H-pyrazol-4-yl)-3,4-dihydroquinolin-1(2H)-yl)-4,5,6,7-tetrahydro-1H-pyrazolo[4,3-c]pyridin-1-yl)piperidin-1-yl)-3-oxopropyl)piperidin-4-yl)methoxy)-3-methyl-2-oxo-2,3-dihydro-1H-benzo[d]imidazol-1-yl)piperidine-2,6-dione], more than 500 nM.
`CC(=O)N1CCc2c(c(N3CCCc4cc(-c5cnn(C)c5)c(C(F)F)cc43)nn2C2CCN(CCN3CCOC(CNc4cccc5c4CN(C4CCC(=O)NC4=O)C5=O)C3)CC2)C1` (centres unmarked) [P-199, 3-(4-(((4-(2-(4-(5-acetyl-3-(7-(difluoromethyl)-6-(1-methyl-1H-pyrazol-4-yl)-3,4-dihydroquinolin-1(2H)-yl)-4,5,6,7-tetrahydro-1H-pyrazolo[4,3-c]pyridin-1-yl)piperidin-1-yl)ethyl)morpholin-2-yl)methyl)amino)-1-oxoisoindolin-2-yl)piperidine-2,6-dione]: the IC50 is more than 500 nM.
In the case of `CC(=O)N1CCc2c(c(N3CCCc4cc(-c5cnn(C)c5)c(C(F)F)cc43)nn2C2CCN(CCCCN3CCN(c4cccc5c4C(=O)N(C4CCC(=O)NC4=O)C5=O)CC3)CC2)C1` (centres unmarked) [P-248, 4-(4-(4-(4-(5-Acetyl-3-(7-(difluoromethyl)-6-(1-methyl-1H-pyrazol-4-yl)-3,4-dihydroquinolin-1(2H)-yl)-4,5,6,7-tetrahydro-1H-pyrazolo[4,3-c]pyridin-1-yl)piperidin-1-yl)butyl)piperazin-1-yl)-2-(2,6-dioxopiperidin-3-yl)isoindoline-1,3-dione], 241 nM corresponded to half-maximal inhibition (IC50).
On the same count and under the same terms, under `CC(=O)N1CCc2c(c(N3CCCc4cc(-c5cnn(C)c5)c(C(F)F)cc43)nn2C2CCN(C(=O)CCCN3CCC(COc4cccc5c4n(C)c(=O)n5C4CCC(=O)NC4=O)CC3)CC2)C1` (centres unmarked) [P-210, 3-(4-((1-(4-(4-(5-Acetyl-3-(7-(difluoromethyl)-6-(1-methyl-1H-pyrazol-4-yl)-3,4-dihydroquinolin-1(2H)-yl)-4,5,6,7-tetrahydro-1H-pyrazolo[4,3-c]pyridin-1-yl)piperidin-1-yl)-4-oxobutyl)piperidin-4-yl)methoxy)-3-methyl-2-oxo-2,3-dihydro-1H-benzo[d]imidazol-1-yl)piperidine-2,6-dione] stands 325 nM; under `CC(=O)N1CCc2c(c(N3CCCc4cc(-c5cnn(C)c5)c(C(F)F)cc43)nn2C2CCN(C(=O)CN3CCN(CC(=O)Nc4cccc(NC5CCC(=O)NC5=O)c4)CC3)CC2)C1` (centres unmarked) [P-257, 2-(4-(2-(4-(5-acetyl-3-(7-(difluoromethyl)-6-(1-methyl-1H-pyrazol-4-yl)-3,4-dihydroquinolin-1(2H)-yl)-4,5,6,7-tetrahydro-1H-pyrazolo[4,3-c]pyridin-1-yl)piperidin-1-yl)-2-oxoethyl)piperazin-1-yl)-N-(3-((2,6-dioxopiperidin-3-yl)amino)phenyl)acetamide], more than 500 nM.
`CC(=O)N1CCc2c(c(N3CCCc4cc(-c5cnn(C)c5)c(C(F)F)cc43)nn2C2CCN(CCN3CCNC(COc4cccc5c4C(=O)N(C4CCC(=O)NC4=O)C5=O)C3)CC2)C1` (centres unmarked) [P-197, 4-((4-(2-(4-(5-acetyl-3-(7-(difluoromethyl)-6-(1-methyl-1H-pyrazol-4-yl)-3,4-dihydroquinolin-1(2H)-yl)-4,5,6,7-tetrahydro-1H-pyrazolo[4,3-c]pyridin-1-yl)piperidin-1-yl)ethyl)piperazin-2-yl)methoxy)-2-(2,6-dioxopiperidin-3-yl)isoindoline-1,3-dione]: the IC50 was more than 500 nM.
